According to patent US10457707B2, “Substituted urea depsipeptide analogs as activators of the CLPP endopeptidase” (priority 2015, dated 2019):
In brackets after ≈: the same amount, converted by molar mass. Read-outs that look alike come from different tables or passages of the source. *1 amine or outer side, *2 acyl side, *3 side chain or, on linkers, in order; H or OH if unused. Where a SMILES comes first, the peptide text is derived from it. Bridges are numbered along the chain shown (N, C = ends). [ ]: non-standard residue; d: D form. The star is where a group is joined. ξ: configuration not given here. NH(1,3-benzodioxol-5-yl) = c1cc2c(cc1N*)OCO2; Phe(3,5-F2) = N[C@@H](Cc1cc(F)cc(F)c1)C(=O)O; NH(4-OCF3-phenyl) = FC(F)(F)Oc1ccc(N*)cc1; Pro(4S-Me) = C[C@@H]1CN[C@H](C(=O)O)C1; Pro(4R-Me) = C[C@H]1CN[C@H](C(=O)O)C1; ξPro(4S-Me) = C[C@@H]1CNC(C(=O)O)C1; Hyp = O=C(O)[C@@H]1C[C@@H](O)CN1; NH(4-Me-phenyl) = Cc1ccc(N*)cc1; aThr = C[C@H](O)[C@H](N)C(=O)O; Pip = O=C(O)[C@@H]1CCCCN1; NMeA = CN[C@@H](C)C(=O)O; CO = O=C([*:1])[*:2]; ξP = O=C(O)C1CCCN1

Experiments:
Type in all cases: cell-based
[1] = test system: Streptococcus pyogenes, ATCC 700294; experiment: Minimal inhibitory concentration assay (microbroth dilution)
Experimental: (§1) It is understood, that in various aspects, the MIC is determined by a microbroth dilution method. In a further aspect, the MIC is determined by a microbroth dilution method using Staphylococcus aureus, ATCC 29213. In a still further aspect, the MIC is determined by a microbroth dilution method using Staphylococcus aureus, NRS70. In a yet further aspect, the MIC is determined by a microbroth dilution method using Streptococcus pyogenes, ATCC 700294. In an even further aspect, the MIC is determined by a microbroth dilution method using Streptococcus pneumoniae, DAW27. In a still further aspect, the MIC is determined by a microbroth dilution method using Bacillus subtilis, ATCC 23857. In a yet further aspect, the MIC is determined by a microbroth dilution method using Enterococcus faecalis, ATCC 33186. In an even further aspect, the MIC is determined using Staphylococcus aureus, USA 300. In a still further aspect, the MIC is determined using Streptococcus pneumoniae, R6. In a further aspect, the MIC is determined using Staphylococcus aureus, USA 300 and compared to the MIC determined using Staphylococcus aureus, USA 300 wherein ClpP is inactivated, thus allowing confirmation that killing is via a ClpP-dependent pathway.
Minimal inhibitory concentrations (“MICs”) were determined using the microbroth dilution method according to Clinical Laboratory Standards Institute (CLSI; National, C.F. C. L. S., Methods for Dilution Antimicrobial Susceptibility Tests for Bacteria Grow aerobically-Seventh Edition: Approved Standard M7-A7, CLSI, Wayne, Pa., USA, 2008) and were read by visual inspection. Two fold serial dilutions of test compound in 100 μL of the appropriate broth media were first prepared in 96-well round bottom microtiter plates (Nalgene Nunc International, Rochester, N.Y., USA). […] The plates were then incubated aerobically at 37° C. All strains were incubated overnight. After incubations, in all cases the MIC was recorded as the lowest concentration of drug that prevented bacterial growth. The bacterial strains for which MIC was determined as described in Table 4.

[2] = test system: Staphylococcus aureus, NRS70; experiment: as above
Experimental: as §1
(§2) Minimal inhibitory concentrations (“MICs”) were determined using the microbroth dilution method according to Clinical Laboratory Standards Institute (CLSI; National, C.F. C. L. S., Methods for Dilution Antimicrobial Susceptibility Tests for Bacteria Grow aerobically-Seventh Edition: Approved Standard M7-A7, CLSI, Wayne, Pa., USA, 2008) and were read by visual inspection. Two fold serial dilutions of test compound in 100 μL of the appropriate broth media were first prepared in 96-well round bottom microtiter plates (Nalgene Nunc International, Rochester, N.Y., USA). An equivalent volume (100 μL) of bacterial broth inocula containing approximately 10^5 bacterial cfu/mL was added to each well to give final concentrations of test compound starting at 200 μM. The plates were then incubated aerobically at 37° C. All strains were incubated overnight. After incubations, in all cases the MIC was recorded as the lowest concentration of drug that prevented bacterial growth. The bacterial strains for which MIC was determined as described in Table 4.

[3] = test system: Staphylococcus aureus, ATCC 29213; experiment: as above; conditions: ATCC29213, read-out: Minimal Inhibitory Concentrations S. aureus ATCC 29213
Experimental: as §1, §2

[4] = test system: Bacillus subtilis, ATCC 23857; experiment: as above
Experimental: as §1, §2

[5] = test system: Enterococcus faecalis, ATCC 33186; experiment: as above; conditions: Enterococcus faecalis, ATCC33186; read-out: Minimal Inhibitory Concentrations E. faecalis ATCC 33186
Experimental: as §1, §2

[6] = test system: Staphylococcus aureus, USA 300; experiment: Minimal inhibitory concentration assay; conditions: USA300, read-out: Minimal Inhibitory Concentrations S. aureus USA 300
Experimental: as §1, §2

[7] = test system: Staphylococcus aureus, USA 300 wherein ClpP is inactivated; experiment: Minimal inhibitory concentration assay
Experimental: as §1, §2

[8] = test system: Streptococcus pneumoniae, R6; experiment: Minimal inhibitory concentration assay; conditions: read-out: Minimal Inhibitory Concentrations S. pneumoniae R6
Experimental: It is understood, that in various aspects, the MIC is determined by a microbroth dilution method. […] In a still further aspect, the MIC is determined by a microbroth dilution method using Staphylococcus aureus, NRS70. […] In an even further aspect, the MIC is determined by a microbroth dilution method using Streptococcus pneumoniae, DAW27. […] In an even further aspect, the MIC is determined using Staphylococcus aureus, USA 300. In a still further aspect, the MIC is determined using Streptococcus pneumoniae, R6. In a further aspect, the MIC is determined using Staphylococcus aureus, USA 300 and compared to the MIC determined using Staphylococcus aureus, USA 300 wherein ClpP is inactivated, thus allowing confirmation that killing is via a ClpP-dependent pathway.
Two fold serial dilutions of test compound in 100 μL of the appropriate broth media were first prepared in 96-well round bottom microtiter plates (Nalgene Nunc International, Rochester, N.Y., USA). […] The plates were then incubated aerobically at 37° C. All strains were incubated overnight. After incubations, in all cases the MIC was recorded as the lowest concentration of drug that prevented bacterial growth. The bacterial strains for which MIC was determined as described in Table 4.

[9] = Streptococcus pyogenes, ATCC700294; read-out: Minimal Inhibitory Concentrations S. pyogenes ATCC 700294
[10] = Staphylococcus aureus, NRS70; read-out: Minimal Inhibitory Concentrations S. aureus NRS70
[11] = Bacillus subtilis, ATCC23857; read-out: Minimal Inhibitory Concentrations B. subtilis ATCC 23857

Structure (SMILES) | MIC [1, 9] [µM] | MIC [2, 10] [µM] | MIC [3] [µM] | MIC [4, 11] [µM] | MIC [5] [µM] | MIC [6] [µM] | Minimal Inhibitory Concentrations S. aureus USA 300 ΔClpP [7] [µM] | MIC [8] [µM] | MIC ([1]; Streptococcus pyogenes, ATCC700294, read-out: Minimal Inhibitory Concentrations S. pyogenes ATCC 700294) [µM] | MIC ([2]; Staphylococcus aureus, NRS70, read-out: Minimal Inhibitory Concentrations S. aureus NRS70) [µM] | MIC ([4]; Bacillus subtilis, ATCC23857, read-out: Minimal Inhibitory Concentrations B. subtilis ATCC 23857) [µM]
C[C@@H]1NC(=O)[C@@H]2CCCCN2C(=O)[C@@H]2CCCN2C(=O)[C@@H](NC(=O)[C@H](Cc2cc(F)cc(F)c2)NC(=O)Nc2ccc3c(c2)OCO3)[C@H](C)OC(=O)[C@@H]2CCCN2C1=O [Compound 17, (S)-2-(3-(benzo[d][1,3]dioxol-5-yl)ureido)-3-(3,5-difluorophenyl)-N-((6S,8aS,14aS,20S,21S,23aS)-6,21-dimethyl-5,8,14,19,23-pentaoxooctadecahydro-1H,5H,14H,19H-pyrido[2,1-i]dipyrrolo[2,1-c:2′,1′-l][1]oxa[4,7,10,13]tetraazacyclohexadecin-20-yl)propanamide] ({NH(1,3-benzodioxol-5-yl)-CO}-[Phe(3,5-F2)][aThr]P[Pip]AP; ester 2-C) | 1.5 (≈ 1.24 µg/mL) | 3.1 (≈ 2.55 µg/mL) | 3.1 (≈ 2.55 µg/mL) | 0.4 (≈ 0.33 µg/mL) | < 0.1 | 3.1 (≈ 2.55 µg/mL) | 200 | – | – | – | –
C[C@H]1CC2C(=O)O[C@@H](C)[C@H](NC(=O)[C@H](Cc3cc(F)cc(F)c3)NC(=O)Nc3ccc(OC(F)(F)F)cc3)C(=O)N3CCCC3C(=O)N(C)[C@@H](C)C(=O)N[C@@H](C)C(=O)N2C1 (stereo partly drawn) [Compound 28, (2S)-3-(3,5-difluorophenyl)-N-((2S,6S,9S,11aS,17S,18S)-2,6,9,10,18-pentamethyl-5,8,11,16,20-pentaoxohexadecahydro-1H,5H,16H-dipyrrolo[2,1-c:2′,1′-l][1]oxa[4,7,10,13]tetraazacyclohexadecin-17-yl)-2-(3-(4-(trifluoromethoxy)phenyl)ureido)propanamide] ({NH(4-OCF3-phenyl)-CO}-[Phe(3,5-F2)][aThr][ξP][NMeA]A[ξPro(4S-Me)]; ester 2-C) | 0.23 (≈ 0.196 µg/mL) | 0.05 (≈ 0.0426 µg/mL) | 0.05 (≈ 0.0426 µg/mL) | 0.01 (≈ 0.00852 µg/mL) | – | 0.1 (≈ 0.0852 µg/mL) | – | 0.029 (≈ 0.0247 µg/mL) | – | – | –
C[C@H]1C[C@H]2C(=O)O[C@@H](C)[C@H](NC(=O)[C@H](Cc3cc(F)cc(F)c3)NC(=O)Nc3ccc4c(c3)OCO4)C(=O)N3CCC[C@H]3C(=O)N3CCCC[C@H]3C(=O)N[C@@H](C)C(=O)N2C1 [Compound 20, (S)-2-(3-(benzo[d][1,3]dioxol-5-yl)ureido)-3-(3,5-difluorophenyl)-N-((2R,6S,8aS,14aS,20S,21S,23aS)-2,6,21-trimethyl-5,8,14,19,23-pentaoxooctadecahydro-1H,5H,14H,19H-pyrido[2,1-i]dipyrrolo[2,1-c:2′,1′-l][1]oxa[4,7,10,13]tetraazacyclohexadecin-20-yl)propanamide] ({NH(1,3-benzodioxol-5-yl)-CO}-[Phe(3,5-F2)][aThr]P[Pip]A[Pro(4S-Me)]; ester 2-C) | 0.4 (≈ 0.335 µg/mL) | 0.4 (≈ 0.335 µg/mL) | 0.8 (≈ 0.67 µg/mL) | < 0.1 | < 0.1 | 0.8 (≈ 0.67 µg/mL) | 200 | – | – | – | –
Cc1ccc(NC(=O)N[C@@H](Cc2cc(F)cc(F)c2)C(=O)N[C@@H]2C(=O)N3C[C@H](O)C[C@H]3C(=O)N3CCCC[C@H]3C(=O)N[C@@H](C)C(=O)N3C[C@H](C)C[C@H]3C(=O)O[C@H]2C)cc1 [Compound 216, (S)-3-(3,5-difluorophenyl)-N-((2R,6S,8aS,14aS,16R,20S,21S,23aS)-16-hydroxy-2,6,21-trimethyl-5,8,14,19,23-pentaoxooctadecahydro-1H,5H,14H,19H-pyrido[2,1-i]dipyrrolo[2,1-c:2′,1′-l][1]oxa[4,7,10,13]tetraazacyclohexadecin-20-yl)-2-(3-(p-tolyl)ureido)propanamide] ({NH(4-Me-phenyl)-CO}-[Phe(3,5-F2)][aThr][Hyp][Pip]A[Pro(4R-Me)]; ester 2-C) | – | – | – | – | – | 0.1 (≈ 0.0824 µg/mL) | – | 0.001 (≈ 0.000824 µg/mL) | 0.2 (≈ 0.165 µg/mL) | 0.2 (≈ 0.165 µg/mL) | 0.2 (≈ 0.165 µg/mL)
